# Laboratory results published in patent publication US12410160B2 (Gilead Sciences, Inc., priority 2021, dated 2025).
# What was measured:
# human KHK-A = human KHK-A (Homo sapiens (Human), UniProt P50053); assay: KHK Biochemical Assay (IC50), ADP-Glo, KHK-A; settings: average of at least two separate assays
# Procedure: (§1) The His-tagged fusion protein was expressed using BL21 (DE3) with IPTG induction and purified using Ni-NTA column followed by dialysis into final buffer containing 25 mM Tris-HCl pH 8.0, 250 mM NaCl.
# (§2) KHK Biochemical Assay (IC50)
# (§3) Compounds were tested for KHK enzyme inhibition in a high-throughput 384-well assay format using the ADP-Glo assay (Promega) in buffer consisting of 50 mM Hepes (pH 7.4), 140 mM KCl, 5 mM MgCl2 and 0.01% Triton-X. 0.2 nM. […] Compounds were serially diluted (1:3) in DMSO.
# (§4) The compounds were pre-incubated with 5 μL of 2× final enzyme concentration for 30 minutes before adding 5 μL of 2× final concentration of ATP and fructose. The plates were incubated at room temperature for 4 hours before adding ADP-Glo reagent to quench the enzyme reaction, followed by incubation at room temperature for 1 hour. The ADP-Glo detection reagent was then added to the plates and luminescence was measured on the Envision plate reader after 1 hour.
# human KHK-C = human KHK-C (Homo sapiens (Human), UniProt P50053); assay: KHK Biochemical Assay (IC50), ADP-Glo, KHK-C; settings: average of at least two separate assays
# human KHK-C, sequence (P50053 whole entry): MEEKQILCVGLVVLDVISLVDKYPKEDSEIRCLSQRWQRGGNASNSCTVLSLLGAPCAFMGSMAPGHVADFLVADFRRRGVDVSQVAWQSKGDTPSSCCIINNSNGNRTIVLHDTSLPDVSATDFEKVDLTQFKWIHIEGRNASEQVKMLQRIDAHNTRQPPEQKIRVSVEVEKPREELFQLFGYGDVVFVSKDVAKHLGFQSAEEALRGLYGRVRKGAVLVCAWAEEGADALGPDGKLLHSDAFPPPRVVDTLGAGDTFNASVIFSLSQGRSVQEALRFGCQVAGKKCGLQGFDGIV
# Procedure: as §1, §2, §3, §4
# human KHK-A, sequence (P50053 other isoform, or with tags, fused parts or gaps): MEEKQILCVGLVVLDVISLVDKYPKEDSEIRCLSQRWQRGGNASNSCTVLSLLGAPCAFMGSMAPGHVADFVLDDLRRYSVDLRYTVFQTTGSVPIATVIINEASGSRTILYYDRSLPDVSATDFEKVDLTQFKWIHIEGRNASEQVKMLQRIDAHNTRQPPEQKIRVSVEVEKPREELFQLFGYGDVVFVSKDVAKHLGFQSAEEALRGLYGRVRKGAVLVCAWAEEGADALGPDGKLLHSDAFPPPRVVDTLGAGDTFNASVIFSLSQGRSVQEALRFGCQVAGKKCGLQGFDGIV
IC50 (human KHK-A; ADP-Glo) [nM],IC50 (human KHK-C; ADP-Glo) [nM],IC50 (human KHK-A) [nM],IC50 (human KHK-C) [nM],Compound
1910,2170,–,–,"C[C@H]1CCN1c1nc(-c2ccccc2)c2c(n1)C1CC1C2 (mixture of isomers) [Example 332, 9-[(2S)-2-methylazetidin-1-yl]-7-phenyl-8,10-diazatricyclo[4.4.0.02,4]deca-1(10),6,8-triene]"
42.9,171,–,–,"C[C@H]1CCN1c1nc2c(c(-c3cccc(C(=O)N[C@H]4CC[C@@H]4O)c3)n1)CCC2 (racemic) [Example 59, N-((18*,28*)-2-hydroxycyclobutyl)-3-(2-((8)-2-methylazetidin-1-yl)-6,7-dihydro-5H-cyclopenta[d]pyrimidin-4-yl)benzamide]"
61.6,119,–,–,"C[C@H]1CCN1c1nc2c(c(-c3cccc(C(=O)N[C@H]4CC[C@H]4O)c3)n1)CCC2 (racemic) [Example 60, N-((18*,2R*)-2-hydroxycyclobutyl)-3-(2-((8)-2-methylazetidin-1-yl)-6,7-dihydro-5H-cyclopenta[d]pyrimidin-4-yl)benzamide]"
6960,4990,–,–,"NS(=O)(=O)c1cccc(-c2nc(N3CC4CCCC43)nc3c2CCC3)c1 (racemic) [Example 79, (rac)-3-(2-(6-azabicyclo[3.2.0]heptan-6-yl)-6,7-dihydro-5H-cyclopenta[d]pyrimidin-4-yl)benzenesulfonamide]"
865,957,–,–,"NS(=O)(=O)c1cccc(-c2nc(N3CC[C@@H]4[C@H](O)C[C@@H]43)nc3c2CCC3)c1 (racemic) [Example 80, (rac)-3-(2-((1S*,5S*,6R*)-6-hydroxy-2-azabicyclo[3.2.0]heptan-2-yl)-6,7-dihydro-5H-cyclopenta[d]pyrimidin-4-yl)benzenesulfonamide]"
18.2,13.2,–,–,"C[C@H]1[C@H](O)CN1c1nc2c(c(-c3cccc([C@H]4C[C@@H]4C(=O)O)c3)n1)CCC2 (single isomer, unassigned) [Example 113]"
51,46.2,–,–,"C[C@H]1[C@H](O)CN1c1nc2c(c(-c3cccc([C@@H]4C[C@H]4C(=O)O)c3)n1)CCC2 (single isomer, unassigned) [Example 114]"
9270,9700,–,–,"C[C@H]1CCN1c1nc(-c2ccccc2)c2c(n1)[C@H]1C[C@H]1C2 (single isomer, unassigned) [Example 334]"
–,–,26.4,12,"C[C@H]1[C@H](O)CN1c1nc(-c2ccc3c(c2)OC[C@]32COC(=O)N2)c2c(n1)C(F)(F)CC2 (single isomer, unassigned) [Example 482]"
–,–,18.9,1.2,"C[C@H]1[C@H](O)CN1c1nc(-c2ccc3c(c2)OC[C@]32COCC(=O)N2)c2c(n1)C(F)(F)CC2 (single isomer, unassigned) [Example 498]"
–,–,6.2,10.6,"C[C@H]1[C@H](O)CN1c1nc(-c2ccc(OC3CC3)c([S@](C)(=N)=O)c2)c2c(n1)C(F)(F)CC2 (single isomer, unassigned) [Example 543]"
–,–,75.2,16.2,"CC1OC[C@]2(COc3cc(-c4nc(N5C[C@@H](O)[C@@H]5C)nc5c4CCC5(F)F)ccc32)NC1=O (single isomer, unassigned) [Example 560]"
–,–,65,44.3,"C[C@H]1[C@H](O)CN1c1nc(-c2ccc3c(c2)OC[C@@]32NC(=O)OC2(C)C)c2c(n1)C(F)(F)CC2 (single isomer, unassigned) [Example 567]"
–,–,10.8,0.9,"C[C@H]1[C@H](O)CN1c1nc(-c2ccc3c(c2)C(F)(F)C[C@@H]3NS(C)(=O)=O)c2c(n1)C(F)(F)CC2 (single isomer, unassigned) [Example 634]"
–,–,2.3,0.1,"C[C@H]1[C@H](F)CN1c1nc(-c2ccc3c(c2)S(=O)(=O)C[C@@H]3NS(C)(=O)=O)c2c(n1)C(F)(F)CC2 (single isomer, unassigned) [Example 679]"
7.8,1.3,–,–,"NC1(c2ccc(-c3nc(N4CC[C@@H]4C(F)F)nc4c3CCC4(F)F)cc2)CS(=O)(=O)C1 (single isomer, unassigned) [Example 800]"
> 100,52.2,–,–,"NC1(c2ccc(-c3nc(N4CC[C@H]4C(F)F)nc4c3CCC4(F)F)cc2)CS(=O)(=O)C1 (single isomer, unassigned) [Example 801]"

IC50 (human KHK-A; ADP-Glo) [nM],IC50 (human KHK-C; ADP-Glo) [nM],IC50 (human KHK-A) [nM],IC50 (human KHK-C) [nM],Compound
> 100,24.2,–,–,"C[C@H]1[C@H](O)CN1c1nc(-c2cnc3c(c2)OC[C@H]3NS(C)(=O)=O)c2c(n1)C(F)(F)CC2 (single isomer, unassigned) [Example 822]"
> 100,11.8,–,–,"C[C@H]1[C@H](O)CN1c1nc(-c2ccc3c(c2)OC[C@]32NC(=O)N(C)C2=O)c2c(n1)C(F)(F)CC2 (single isomer, unassigned) [Example 827]"
99.8,4,–,–,"COC(=O)N[C@@H]1COc2cc(-c3nc(N4C[C@@H](O)[C@@H]4C)nc4c3CCC4(F)F)cc(OC)c21 (single isomer, unassigned) [Example 833]"
56.8,17.8,–,–,"COC(=O)N[C@H]1COc2cc(-c3nc(N4C[C@@H](O)[C@@H]4C)nc4c3CCC4(F)F)cc(OC)c21 (single isomer, unassigned) [Example 834]"
952,689,–,–,"COC(=O)CCc1cccc(-c2nc(N3CC[C@@H]3C)nc3c2CCC3)c1 [Example 1, methyl (S)-3-(3-(2-(2-methylazetidin-1-yl)-6,7-dihydro-5H cyclopenta[d]pyrimidin-4-yl)phenyl)propanoate]"
31000,30800,–,–,"COC(=O)CCc1ccccc1-c1nc(N2CC[C@@H]2C)nc2c1CCC2 [Example 2, methyl (S)-3-(2-(2-(2-methylazetidin-1-yl)-6,7-dihydro-5H-cyclopenta[d]pyrimidin-4-yl)phenyl)propanoate]"
121,122,–,–,"COC(=O)Cc1cccc(-c2nc(N3CC[C@@H]3C)nc3c2CCC3)c1 [Example 3, methyl (S)-2-(3-(2-(2-methylazetidin-1-yl)-6,7-dihydro-5H-cyclopenta[d]pyrimidin-4-yl)phenyl)acetate]"
5920,7900,–,–,"C[C@H]1CCN1c1nc2c(c(-c3ccccc3CCC(=O)O)n1)CCC2 [Example 5, (S)-3-(2-(2-(2-methylazetidin-1-yl)-6,7-dihydro-5H-cyclopenta[d]pyrimidin-4-yl)phenyl)propanoic acid]"
285,243,–,–,"C[C@H]1CCN1c1nc2c(c(-c3cccc(CC(=O)O)c3)n1)CCC2 [Example 6, (S)-2-(3-(2-(2-methylazetidin-1-yl)-6,7-dihydro-5H-cyclopenta[d]pyrimidin-4-yl)phenyl)acetic acid]"
439,373,–,–,"C[C@H]1CCN1c1nc2c(c(-c3cccc(C#N)c3)n1)CCC2 [Example 7, (S)-3-(2-(2-methylazetidin-1-yl)-6,7-dihydro-5H-cyclopenta[d]pyrimidin-4-yl)benzonitrile]"
1150,1140,–,–,"C[C@H]1CCN1c1nc2c(c(-c3ccccc3)n1)CCOC2 [Example 10, (S)-2-(2-methylazetidin-1-yl)-4-phenyl-5,8-dihydro-6H-pyrano[3,4-d]pyrimidine]"
453,408,–,–,"C[C@H]1CCN1c1nc(-c2ccccc2)c2c(cnn2C)n1 [Example 11, (S)-1-methyl-5-(2-methylazetidin-1-yl)-7-phenyl-1H-pyrazolo[4,3-d]pyrimidine]"
2620,2600,–,–,"C[C@H]1CCN1c1nc(-c2ccccc2)c2occc2n1 [Example 12, (S)-2-(2-methylazetidin-1-yl)-4-phenylfuro[3,2-d]pyrimidine]"
615,420,–,–,"C[C@H]1CCN1c1nc2c(c(-c3ccn(CCC(=O)O)n3)n1)CCC2 [Example 24, (S)-3-(3-(2-(2-methylazetidin-1-yl)-6,7-dihydro-5H-cyclopenta[d]pyrimidin-4-yl)-1H-pyrazol-1-yl)propanoic acid]"
142,104,–,–,"C[C@H]1CCN1c1nc2c(c(-c3cnn(CCC(=O)O)c3)n1)CCC2 [Example 25, (S)-3-(4-(2-(2-methylazetidin-1-yl)-6,7-dihydro-5H-cyclopenta[d]pyrimidin-4-yl)-1H-pyrazol-1-yl)propanoic acid]"
1860,1540,–,–,"C[C@H]1CCN1c1nc(-c2ccccc2)c2ncsc2n1 [Example 26, (S)-5-(2-methylazetidin-1-yl)-7-phenylthiazolo[5,4-d]pyrimidine]"
> 50000,> 50000,–,–,"C[C@H]1CCN1c1nc2c(c(-c3ccccc3)n1)CC(C1CC1)C2 (stereo partly drawn) [Example 30, 6-cyclopropyl-2-((S)-2-methylazetidin-1-yl)-4-phenyl-6,7-dihydro-5H-cyclopenta[d]pyrimidine]"

Compound,IC50 (human KHK-A; ADP-Glo) [nM],IC50 (human KHK-C; ADP-Glo) [nM],IC50 (human KHK-A) [nM],IC50 (human KHK-C) [nM]
"2-[(2S)-2-methylazetidin-1-yl]-4-(3-methylimidazol-4-yl)-6,7-dihydro-5H-cyclopenta[d]pyrimidine [Example 341]",133,111,–,–
"3-(24(2S,3R)-3-fluoro-2-methylazetidin-1-yl)-6,8-dihydro-5H-pyrano[3,4-d]pyrimidin-4-yl)benzenesulfonamide [Example 287]",696,1270,–,–
"NC1(c2ccc(-c3nc(N4CC[C@H]4C(F)F)nc4c3CCC4(F)F)cc2)COC1 (single isomer, unassigned) [Example 688]",–,–,96.5,59.6
